From patent US20230212180A1, “SUBSTITUTED PYRAZINE COMPOUND, PHARMACEUTICAL COMPOSITION COMPRISING SAME, AND USE THEREOF” (Sichuan Kelun-Biotech Biopharmaceutical Co., Ltd., priority 2020, published 2023)

How the values were obtained:
[1] = molecular target: T1, recombinant full-length human PTPN11 (SHP2) (Homo sapiens, UniProt Q06124); assay: Inhibition of in vitro enzyme activity of SHP2 (DiFMUP fluorescence endpoint assay); assay type: biochemical; details: SHP2 0.5 nM, DiFMUP 200 μM, IRS-1 0.5 μM; 60 min incubation
T1 construct: recombinant full-length human PTPN11 (SHP2), active (SignalChem); purchased SignalChem
T1 sequence (Q06124 1-593): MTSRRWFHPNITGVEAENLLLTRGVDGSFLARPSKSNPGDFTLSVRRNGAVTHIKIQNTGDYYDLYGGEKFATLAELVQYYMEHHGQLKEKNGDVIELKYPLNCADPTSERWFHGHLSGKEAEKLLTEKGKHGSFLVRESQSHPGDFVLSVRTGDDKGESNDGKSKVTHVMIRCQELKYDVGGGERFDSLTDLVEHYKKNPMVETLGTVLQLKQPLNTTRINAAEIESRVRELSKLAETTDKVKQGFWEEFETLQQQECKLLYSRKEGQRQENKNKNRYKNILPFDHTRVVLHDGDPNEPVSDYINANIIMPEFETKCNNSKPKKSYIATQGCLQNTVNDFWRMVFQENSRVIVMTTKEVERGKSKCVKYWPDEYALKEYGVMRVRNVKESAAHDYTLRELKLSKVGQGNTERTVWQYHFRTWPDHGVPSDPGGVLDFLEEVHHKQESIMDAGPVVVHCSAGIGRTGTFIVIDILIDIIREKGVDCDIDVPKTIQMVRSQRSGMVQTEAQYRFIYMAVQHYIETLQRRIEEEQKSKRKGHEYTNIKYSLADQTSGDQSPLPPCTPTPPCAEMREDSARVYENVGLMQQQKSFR
Procedure: Test Example 1: Experiment on the Inhibition of In Vitro Enzyme Activity of SHP2 (Protein Phosphatase)
phosphatase: recombinant full-length human PTPN11 (SHP2), active (SignalChem);
substrate: 6,8-difluoro-4-methylumbelliferyl phosphate (DiFMUP) (Invitrogen);
activating peptide: IRS1_pY1172(dPEG8)pY1222 (IRS1) (BPS Bioscience);
terminator: bpv(phen) (bpv) (Abcam).
SHP2 concentration: 0.5 nM;
DiFMUP concentration: 200 μM;
IRS-1 concentration: 0.5 μM;
bpv concentration: 160 μM;
buffer systems: 60 mM Hepes pH 7.2; 75 mM NaCl; 75 mM KCl; 0.05% surfactant P20; 1 mM EDTA; 5 mM DTT;
incubation duration of compound and enzyme: 60 minutes;
reaction time of enzyme and substrate: 30 minutes;
parameters for microplate reader: BMG PHERAstar fluorescence microplate reader at an excitation wavelength of 340 nm and an emission wavelength of 450 nm.
Test group: A mixture of the test compound and the phosphatase SHP2 together with the activating peptide IRS-1 were incubated in the buffer system at room temperature for 60 minutes. The substrate DiFMUP was added to initiate the reaction and incubated at room temperature for 30 minutes. Thereafter, bpv was added to terminate the reaction. The reaction plate was placed in the microplate reader, and the fluorescence intensities of the wells in the plate were measured using an endpoint assay.
Negative group: The experimental method for the negative group was the same as that for the test group, except that the test compound was substituted with 0.05% aqueous solution of DMSO.
Blank group: The experimental method for the blank group was the same as that for the test group, except that the test compound was substituted with 0.05% aqueous solution of DMSO and that SHP2 was not added.
The relative inhibitory activity was calculated for the test group at each concentration based on the following equation: inhibition rate (%)=100%−(the fluorescence intensity of the test group−the fluorescence intensity of the blank group)/(the fluorescence intensity of the negative group−the fluorescence intensity of the blank group)×100%. The half maximal inhibitory concentration (IC50) of the compound was calculated by fitting the curve according to the four-parameter logistic model.

hERG = molecular target: T2, hERG (Homo sapiens, UniProt Q12809); assay: Biochemical assay for hERG inhibition (Predictor hERG Fluorescence Polarization Assay Kit); assay type: binding
T2 construct: purchased ThermoFisher
Procedure: Test Example 3: Biochemical Assay for hERG Inhibition
kit: Predictor™ hERG Fluorescence Polarization Assay Kit (ThermoFisher) containing:
Compound E4031 as a positive control;
tracer concentration: 1 nM;
incubation duration: 2 hours;
parameters for microplate reader: BMG PHERAstar FS fluorescence microplate reader.
Test group: The test compounds at different concentrations were added into a microplate containing hERG cell membrane, and the tracer with a high affinity for hERG was then added into each well. The microplate was incubated at 25° C. for 2 hours before detection of the change in fluorescence polarization value (mP) (excitation wavelength: 540 nm; emission wavelength: 590 nm) using a multi-mode microplate reader.
Positive control group: The experimental method for the positive control group was the same as that for the test group, except that the test compound was replaced with 30 μM Compound E4031.
Blank control group: The experimental method for the blank control group was the same as that for the test group, except that the test compound was replaced with the hERG buffer and that the hERG cell membrane was not added.
Based on the data ratios, the percentage inhibition (%) of the compounds of the present disclosure against hERG at different concentrations was calculated and the range of the half maximal inhibitory concentration (IC50) of the compounds was determined. Percentage inhibition (%)=(1−(mP of the test compound−mP of the positive control group)/(mP of the blank control group−mP of the positive control group))×100%.

[2] = system: KYSE-520 cell (human esophageal squamous cell carcinoma cell); assay: Inhibition of the proliferation activity of KYSE-520 cell (CellTiter-Glo); assay type: cell-based; details: 120 h, KYSE-520 cell proliferation, 5 days
Procedure: Test Example 2: Experiment on the Inhibition of the Proliferation Activity of KYSE-520 Cell (Human Esophageal Squamous Cell Carcinoma Cell)
cell: KYSE-520 (JCRB Cell Bank);
kit: CellTiter-Glo® Luminescent Cell Viability Assay Kit (Promega).
inoculation amount of cell: 1500 cells/well;
incubation conditions for compound: 37° C., 5% CO2;
incubation duration: 5 days;
detecting temperature: room temperature;
chemiluminescence detection using the BMG PHERAstar FS reader.
Cells were cultured in a medium containing 10% fetal bovine serum under the culture conditions of 37° C. and 5% CO2. An appropriate amount of cells were plated into a 96-well plate and cultured overnight in an incubator to allow the cells to adhere to the wall. The following day, the medium was removed and a complete medium containing a pre-diluted compound was added and incubated at 37° C. for 5 days. On the fifth day, the detection reagent CellTiter-Glo® was added into each well. Chemiluminescence was adopted to detect the relative luminescence units (RLUs) of the wells.
The result of a well containing cell-free medium, treated with CellTiter-Glo®, was obtained as the blank value. Cell viability (%)=(sample RLU−blank RLU)/(vehicle RLU−blank RLU)×100%, and maximum inhibition rate (%)=100%−cell viabilitymax. conc. (%). The half maximal inhibitory concentration (IC50) of the compound was calculated by fitting the curve according to the four-parameter logistic model.

T2 sequence (Q12809 whole entry): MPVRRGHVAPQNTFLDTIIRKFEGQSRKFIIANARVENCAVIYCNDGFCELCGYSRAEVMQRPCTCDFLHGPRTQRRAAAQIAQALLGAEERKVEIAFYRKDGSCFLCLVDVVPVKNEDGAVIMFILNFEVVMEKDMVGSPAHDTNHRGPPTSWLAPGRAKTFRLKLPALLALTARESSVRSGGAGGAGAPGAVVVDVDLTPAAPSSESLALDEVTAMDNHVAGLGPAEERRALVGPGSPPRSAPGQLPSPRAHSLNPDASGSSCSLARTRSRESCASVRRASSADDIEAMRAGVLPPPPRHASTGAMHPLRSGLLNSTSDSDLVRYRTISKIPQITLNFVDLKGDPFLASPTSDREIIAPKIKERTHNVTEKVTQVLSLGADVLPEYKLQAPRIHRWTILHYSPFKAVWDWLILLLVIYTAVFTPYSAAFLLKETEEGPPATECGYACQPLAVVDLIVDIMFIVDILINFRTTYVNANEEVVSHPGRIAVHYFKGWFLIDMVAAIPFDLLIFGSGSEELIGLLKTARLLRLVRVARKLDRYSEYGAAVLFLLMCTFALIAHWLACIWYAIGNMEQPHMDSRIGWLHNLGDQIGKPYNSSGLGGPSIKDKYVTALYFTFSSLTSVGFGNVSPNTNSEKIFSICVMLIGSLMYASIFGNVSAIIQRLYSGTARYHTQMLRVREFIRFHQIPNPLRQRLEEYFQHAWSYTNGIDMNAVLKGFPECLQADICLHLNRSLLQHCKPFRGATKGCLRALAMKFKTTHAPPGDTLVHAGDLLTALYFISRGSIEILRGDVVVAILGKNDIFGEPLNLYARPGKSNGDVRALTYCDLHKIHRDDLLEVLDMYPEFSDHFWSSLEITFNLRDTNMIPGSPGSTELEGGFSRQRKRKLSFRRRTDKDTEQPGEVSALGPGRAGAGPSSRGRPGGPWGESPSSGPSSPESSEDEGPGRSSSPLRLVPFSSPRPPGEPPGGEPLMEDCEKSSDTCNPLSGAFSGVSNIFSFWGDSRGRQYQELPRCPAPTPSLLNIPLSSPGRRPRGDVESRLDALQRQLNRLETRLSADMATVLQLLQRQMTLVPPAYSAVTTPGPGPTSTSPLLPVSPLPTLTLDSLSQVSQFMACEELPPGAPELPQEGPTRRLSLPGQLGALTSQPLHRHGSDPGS

C[C@@H]1OCC2(CCN(c3ncc(Sc4ccnc(N5CCCC5CO)c4Cl)nc3CF)CC2)[C@@H]1N (stereo partly drawn) [Example 4, (1-(4-(5-((3S,4S)-4-amino-3-methyl-2-oxa-8-azaspiro[4.5]decan-8-yl)-6-(fluoromethyl)pyrazin-2-ylthio)-3-chloropyridin-2-yl)pyrrolidin-2-yl)methanol]
IC50 [1]: 4.1 nM
IC50 (hERG): > 10000 nM
IC50 [2]: 170 nM

N[C@@H]1COCC12CCN(c1ncc(Sc3ccnc(N4CCCC4CO)c3Cl)nc1CO)CC2 (stereo partly drawn) [Example 7, (3-((S)-4-amino-2-oxa-8-azaspiro[4.5]decan-8-yl)-6-(3-chloro-2-(2-(hydroxymethyl)pyrrolidin-1-yl)pyridin-4-ylthio)pyrazin-2-yl)methanol]
IC50 [1]: 4.6 nM
IC50 (hERG): > 10000 nM
IC50 [2]: 770 nM

C[C@@H]1OCC2(CCN(c3ncc(Sc4ccnc(N5CC[C@H]5CO)c4Cl)nc3CO)CC2)[C@@H]1N [Example 9, (3-((3S,4S)-4-amino-3-methyl-2-oxa-8-azaspiro[4.5]decan-8-yl)-6-(3-chloro-2-((S)-2-(hydroxymethyl)azetidin-1-yl)pyridin-4-ylthio)pyrazin-2-yl)methanol]
IC50 [1]: 1.3 nM
IC50 (hERG): > 10000 nM
IC50 [2]: 220 nM

C[C@@H]1OCC2(CCN(c3ncc(Sc4ccnc(N5CCCC5CC#N)c4Cl)nc3CO)CC2)[C@@H]1N (stereo partly drawn) [Example 18, 2-(1-(4-(5-((3S,4S)-4-amino-3-methyl-2-oxa-8-azaspiro[4.5]decan-8-yl)-6-(hydroxymethyl)pyrazin-2-ylthio)-3-chloropyridin-2-yl)pyrrolidin-2-yl)acetonitrile]
IC50 [1]: 1.9 nM
IC50 (hERG): > 10000 nM
IC50 [2]: 240 nM

C[C@@H]1OCC2(CCN(c3ncc(Sc4ccnc(N5CC(C(C)(C)C#N)C5)c4Cl)nc3CO)CC2)[C@@H]1N [Example 30, 2-(1-(4-(5-((3S,4S)-4-amino-3-methyl-2-oxa-8-azaspiro[4.5]decan-8-yl)-6-(hydroxymethyl)pyrazin-2-ylthio)-3-chloropyridin-2-yl)azetidin-3-yl)-2-methylpropanenitrile]
IC50 [1]: 4 nM
IC50 (hERG): > 10000 nM

C[C@@H]1OCC2(CCN(c3ncc(Sc4ccnc(N5CC(F)(CO)C5)c4Cl)nc3CO)CC2)[C@@H]1N [Example 39, (3-((3S,4S)-4-amino-3-methyl-2-oxa-8-azaspiro[4.5]decan-8-yl)-6-(3-chloro-2-(3-fluoro-3-(hydroxymethyl)azetidin-1-yl)pyridin-4-ylthio)pyrazin-2-yl)methanol]
IC50 [1]: 1.4 nM
IC50 (hERG): > 10000 nM
IC50 [2]: 20 nM
